Results on 1 compound are retold here after US10668039B2, “Methods for treatment of adenoid cystic carcinoma” (THE CHILDREN'S MEDICAL CENTER CORPORATION, priority 2016, dated 2020).

In this assay the test system is ACC PDX models. Kind of assay: ATRA comparison TGI studies in ACC PDX models. The class given is in vivo. The note with it: ATRA 8 mg/kg to 32 mg/kg; tamibarotene 2 mg/kg. As for the experimental part: The TGI studies in ACC PDX models were repeated in order to compare the original ATRA dose (3 or 4 mg/ml) against a more physiologically relevant dose of ATRA (8 mg/kg) and an alternative retinoid Tamibarotene (originally developed for ATRA-resistant cancer settings, approved in Japan and currently in development at Syros Pharmaceuticals).

In the case of `CC1(C)CCC(C)(C)c2cc(NC(=O)c3ccc(C(=O)O)cc3)ccc21` [tamibarotene, 4-[(1,1,4,4-tetramethyltetralin-6-yl)carbamoyl]benzoic acid], the “tumor growth inhibition in the PDX studies” value is on record as “showed tumor growth inhibition”.
